Like-named read-outs stand apart in the source and are kept apart here.
How the values were obtained:
Type in all cases: in vitro ADME
CYP2C9 = CYP2C9 (Homo sapiens, UniProt P11712); assay: In vitro Cytochrome P-450 enzyme assay, CYP2C9; details: for IC50: read-out: Inhibitor of: CYP2C9, IC50
CYP1A2 = molecular target: T1, CYP1A2 (Homo sapiens, UniProt P05177); assay: In vitro Cytochrome P-450 enzyme assay, CYP1A2
T1 sequence (P05177 1-516): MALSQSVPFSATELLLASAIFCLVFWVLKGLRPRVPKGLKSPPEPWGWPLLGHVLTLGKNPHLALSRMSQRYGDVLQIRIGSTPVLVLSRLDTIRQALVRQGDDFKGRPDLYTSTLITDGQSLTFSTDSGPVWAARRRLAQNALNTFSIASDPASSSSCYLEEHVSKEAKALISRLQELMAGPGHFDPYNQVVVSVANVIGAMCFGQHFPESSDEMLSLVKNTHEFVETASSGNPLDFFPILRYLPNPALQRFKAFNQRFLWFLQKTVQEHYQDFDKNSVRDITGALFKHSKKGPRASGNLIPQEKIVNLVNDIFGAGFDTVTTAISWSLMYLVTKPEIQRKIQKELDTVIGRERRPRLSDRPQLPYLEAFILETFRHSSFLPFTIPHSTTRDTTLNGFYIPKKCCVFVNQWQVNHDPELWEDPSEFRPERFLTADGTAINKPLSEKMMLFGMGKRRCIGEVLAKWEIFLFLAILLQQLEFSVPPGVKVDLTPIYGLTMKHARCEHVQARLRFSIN
Description: (§1) The following studies have been conducted: (a) in vitro drug protein binding, transporter (organic anion transporting polypeptide [OATP], P-glycoprotein [P-gp], breast cancer-related protein [BCRP], and multiple drug resistance protein 1 [MDR1]), and cytochrome P-450 enzyme assays to investigate absorption, distribution, and excretion; (b) in vivo MGL-3196 rat and dog oral PK and bioavailability studies; (c) in vivo ^14C-MGL-3196 rat and dog oral pharmacokinetics, absorption, excretion, and tissue distribution by quantitative whole-body autoradiography (QWBA) studies; and (d) liver disposition of MGL-3196 using an in vitro sandwiched hepatocyte model system (B-CLEAR® technology) in dog (SCDH) and human (SCHH) hepatocytes.

OATP1B1 = molecular target: T2, OATP1B1 (Homo sapiens, UniProt Q9Y6L6); assay: In vitro drug transporter assay, OATP1B1
T2 sequence (Q9Y6L6 1-691): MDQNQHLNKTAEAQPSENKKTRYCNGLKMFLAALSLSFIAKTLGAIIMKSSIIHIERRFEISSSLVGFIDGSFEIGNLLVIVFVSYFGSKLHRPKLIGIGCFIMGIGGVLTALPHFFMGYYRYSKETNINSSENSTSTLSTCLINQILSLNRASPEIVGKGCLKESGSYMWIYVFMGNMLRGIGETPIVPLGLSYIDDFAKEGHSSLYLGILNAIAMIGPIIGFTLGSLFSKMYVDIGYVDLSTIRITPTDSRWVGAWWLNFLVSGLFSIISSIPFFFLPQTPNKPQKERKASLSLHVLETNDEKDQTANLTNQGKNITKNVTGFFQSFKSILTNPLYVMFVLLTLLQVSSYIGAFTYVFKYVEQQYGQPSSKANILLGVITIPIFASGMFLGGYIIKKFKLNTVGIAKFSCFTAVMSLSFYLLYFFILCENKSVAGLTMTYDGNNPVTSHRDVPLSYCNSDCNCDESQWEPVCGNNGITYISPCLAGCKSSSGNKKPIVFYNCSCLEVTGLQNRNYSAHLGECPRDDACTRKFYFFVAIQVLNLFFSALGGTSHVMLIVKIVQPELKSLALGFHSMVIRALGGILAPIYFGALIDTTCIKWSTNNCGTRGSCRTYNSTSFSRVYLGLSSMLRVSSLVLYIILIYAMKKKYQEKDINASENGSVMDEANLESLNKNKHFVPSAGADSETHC
Description: as §1

[1] = test system: sandwich-cultured dog hepatocytes (SCDH); assay: Hepatobiliary disposition in sandwich-cultured dog hepatocytes (SCDH)
Description: as §1
Parameters determined: • Bile Accumulation=Total Accumulationplus(+)Buffer−Cellular AccumulationMinus(−)Buffer
[formula] • AUC=(Incubation Time)*(Analyte ConcentrationMedia) • In vitro biliary clearance:
[formula] • (Kp ratio reflects the extent of MGL-3196 accumulation in hepatocyte to the total MGL-3196 concentration in the buffer, outside of the hepatocyte).
(§2) MGL-3196 and its metabolite, MGL-3196-M1 (M1), were evaluated in sandwich-cultured human hepatocytes (SCHH) to evaluate the effects of temperature and concentration on total accumulation. Incubations were performed in presence of 4% bovine serum albumin (BSA) for 20 minutes at 37° C. and 4° C. across multiple concentrations (3, 10, 30, and 100 μM). Following the hepatic accumulation study, a species comparison of the hepatobiliary disposition of MGL-3196 (30 μM) and its metabolite, M1, was evaluated in SCHH and sandwich-cultured dog hepatocytes (SCDH) in the presence of 4% BSA.

[2] = test system: sandwich-cultured human hepatocytes (SCHH); assay: Effects of temperature and concentration on total accumulation in SCHH
Experimental: as §2

CYP2C19 = CYP2C19 (Homo sapiens, UniProt P33261); assay: In vitro Cytochrome P-450 enzyme assay, CYP2C19
Chain of CYP2C19 (P33261 whole entry): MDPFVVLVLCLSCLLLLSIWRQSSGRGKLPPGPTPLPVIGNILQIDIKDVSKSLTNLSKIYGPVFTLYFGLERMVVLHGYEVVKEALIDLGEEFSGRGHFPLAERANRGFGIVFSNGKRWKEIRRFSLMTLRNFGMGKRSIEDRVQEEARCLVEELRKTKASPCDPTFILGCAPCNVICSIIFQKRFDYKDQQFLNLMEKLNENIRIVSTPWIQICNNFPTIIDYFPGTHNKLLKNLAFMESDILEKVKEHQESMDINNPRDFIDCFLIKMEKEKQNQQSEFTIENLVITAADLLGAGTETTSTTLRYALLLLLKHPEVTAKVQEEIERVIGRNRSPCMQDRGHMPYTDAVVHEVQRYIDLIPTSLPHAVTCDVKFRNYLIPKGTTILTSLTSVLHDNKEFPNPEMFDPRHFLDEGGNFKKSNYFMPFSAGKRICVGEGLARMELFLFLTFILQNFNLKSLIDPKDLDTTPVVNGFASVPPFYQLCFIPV

[3] = SCDH, 20 min exposure to MGL-3196 30 μM, 4% BSA

Chain of CYP2C9 (P11712 whole entry): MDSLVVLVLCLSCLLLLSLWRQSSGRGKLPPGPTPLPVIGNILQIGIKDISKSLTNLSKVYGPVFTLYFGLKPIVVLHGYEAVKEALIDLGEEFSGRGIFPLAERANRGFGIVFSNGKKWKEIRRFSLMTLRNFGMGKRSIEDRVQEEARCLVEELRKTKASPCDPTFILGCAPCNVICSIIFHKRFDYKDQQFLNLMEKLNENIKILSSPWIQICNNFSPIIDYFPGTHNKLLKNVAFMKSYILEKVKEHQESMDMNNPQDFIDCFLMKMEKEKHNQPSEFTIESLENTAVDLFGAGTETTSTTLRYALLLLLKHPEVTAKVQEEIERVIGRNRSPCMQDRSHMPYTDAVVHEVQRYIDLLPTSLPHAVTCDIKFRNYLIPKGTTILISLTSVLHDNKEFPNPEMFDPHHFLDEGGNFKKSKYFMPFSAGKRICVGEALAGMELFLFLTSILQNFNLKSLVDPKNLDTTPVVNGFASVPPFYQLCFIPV

Structure (SMILES): CC(C)c1cc(Oc2c(Cl)cc(-n3nc(C#N)c(=O)[nH]c3=O)cc2Cl)n[nH]c1=O [MGL-3196, 2-(3,5-dichloro-4-((5-isopropyl-6-oxo-1,6-dihydropyridazin-3-yl)oxy)phenyl)-3,5-dioxo-2,3,4,5-tetrahydro-1,2,4-triazine-6-carbonitrile]
- Substrate for: CYP2C9 (CYP2C9): CYP2C9;
- IC50 (CYP2C9): 22 µM
- Inhibitor of: CYP1A2 (CYP1A2): not an inhibitor
- Substrate for: OATP1B1 (OATP1B1): OATP1B1;
- Inhibitor of: OATP1B1, % inhibition (OATP1B1; @ 10 uM Pravastatin): 29%
- IC50 (OATP1B1; read-out: Inhibitor of: OATP1B1, IC50): 3.7 µM
- Total accumulation in SCDH lower than in SCHH ([1]; 30 μM, 20-minute exposure): ~81%
- biliary clearance estimates lower in dog than human hepatocytes ([1]; SCDH vs SCHH): ~46%
- BEI (Biliary Excretion Index) [1, 3]: 48.7%
- Bile Acc. [1, 3]: 86.2 pmol/mg
- Cellular Acc. [1, 3]: 80.3 pmol/mg
- ClBiliary (in vitro biliary clearance) [1, 3]: 0.784 mL/min/kg
- ICC (intracellular concentration) [1, 3]: 10.4 µM
- Kp [1, 3]: 0.348 Ratio
- Total Acc. [1, 3]: 167 pmol/mg
- share of total accumulation (hepatocytes+bile) mediated by an active uptake process (temperature-dependent) ([2]; 37° C. vs 4° C., 20 minutes, 4% BSA, 3, 10, 30, 100 μM): ≥ 72.8%
- Inhibitor of: CYP2C19 (CYP2C19): not an inhibitor

Structure (SMILES): CC(CO)c1cc(Oc2c(Cl)cc(-n3nc(C#N)c(=O)[nH]c3=O)cc2Cl)n[nH]c1=O (centres unmarked) [MGL-3623]
- IC50 (CYP2C9; range given jointly for CYP2B6, CYP2C9, CYP2C19, weak): 24 to 35 µM
- IC50 (CYP1A2; read-out: Inhibitor of: CYP1A2, IC50): > 50 µM
- Substrate for: OATP1B1 (OATP1B1): OATP1B1
- inhibition at 10 µM (OATP1B1; @10 uM, insignificant, read-out: Inhibitor of: OATP1B1, % inhib): 23%
- Cellular Acc. [1, 3]: BLQ
- PIS (post incubation supernatant, cell culture media) [1, 3]: BLQ
- Total Acc. [1, 3]: BLQ
- reduction of accumulation in 4° C. incubations ([2]; across all MGL-3196 exposure levels examined): ≥ 65%
- IC50 (CYP2C19; range given jointly for CYP2B6, CYP2C9, CYP2C19, weak, read-out: Inhibitor of: CYP2C19, IC50): 24 to 35 µM

Reference: patent publication US11090308B2, “Methods of treating liver disorders or lipid disorders with a THR-beta agonist” (Madrigal Pharmaceuticals, Inc., priority 2016, dated 2021)
